For 15 compounds, IC90 and EC50 results are on record in patent publication US20240199613A1 (TAKEDA PHARMACEUTICAL COMPANY LIMITED, priority 2021, published 2024).

Experiment [1] deals with T1, plasma kallikrein (Homo sapiens, UniProt P03952).
T1 construct: from tissue; host or cells: sodium citrate collected human plasma (78% final)
Kind of experiment: Neat human plasma assay: contact pathway-activated (FXIIa) plasma, PFR-AMC substrate. Type of experiment: biochemical. The conditions noted are these: citrated human plasma (78% final), 10 nM human FXIIa, 100 μM PFR-AMC, room temperature. The procedure:
To analyze inhibition of plasma kallikrein in an ex vivo setting, the potency of compounds was measure in contact pathway-activated plasma assays. In a fluorogenic peptide substrate assay, test compounds dissolved in DMSO were added to sodium citrate collected human or rat plasma in a 96-well microplate. Alternatively, citrated plasma was collected from rats administered the compounds orally or by IV. 10 nM of human FXIIa (Enzyme Research Laboratories) diluted in pKal buffer (20 mM Tris-HCl, pH 7.5, 150 mM NaCl, 1 mM EDTA, 0.1% PEG-8000, and 0.1% Triton X-100) was added to the plasma, followed by the 100 μM of the profluorescent, synthetic plasma kallikrein substrate PFR-AMC (also diluted in pKal buffer). Final plasma concentration in the reaction was 78%. Fluorescence was immediately monitored by excitation/emission wavelengths of 360 nm/480 nm respectively over a period of 5 minutes in a microplate reader. The resulting linear increase in fluorescence emission (reflecting pKal proteolysis of PFR-AMC substrate) was fit to extract a proteolytic rate (fluorescent units over time), and this rate was subsequently plotted against compound inhibitor concentration. Resulting plots were fit to a standard 4-parameter IC50/IC90 equation to determine min/max values, IC50/90, and slope. All experimental steps were performed at room temperature.

The target in experiment [2] is human activated kallikrein enzyme (Homo sapiens, UniProt P03952). Kind of experiment: Inhibition of activated plasma kallikrein, fluorogenic peptide substrate (PFR-AMC) assay, 500 pM enzyme format. Type of experiment: biochemical. The settings on record: 500 pM activated kallikrein, 300 uM PFR-AMC, 30 min preincubation, 10 min reaction, room temperature; read-out: Primary Dose Response Assay: Average EC50. Put shortly:
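500 pM enzyme preincubated 30 min at room temperature with inhibitor in 20 mM Tris pH 7.5, 150 mM NaCl, 1 mM EDTA, 0.1% PEG-400, 0.1% Triton X-100. Reaction started with 300 uM PFR-AMC and run 10 min at room temperature. Fluorescence read at 380 nm excitation/460 nm emission.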

Bounds are passed on as bounds.

human activated kallikrein enzyme, sequence (P03952 391-638 limits assumed): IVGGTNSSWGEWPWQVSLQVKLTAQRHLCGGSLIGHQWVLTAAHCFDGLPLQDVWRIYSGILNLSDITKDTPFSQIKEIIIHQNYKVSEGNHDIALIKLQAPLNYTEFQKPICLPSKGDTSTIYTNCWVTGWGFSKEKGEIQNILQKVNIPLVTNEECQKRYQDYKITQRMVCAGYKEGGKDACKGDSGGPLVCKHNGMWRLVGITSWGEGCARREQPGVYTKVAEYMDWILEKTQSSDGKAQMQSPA
human activated kallikrein enzyme, sequence (P03952 20-390 partner limits assumed): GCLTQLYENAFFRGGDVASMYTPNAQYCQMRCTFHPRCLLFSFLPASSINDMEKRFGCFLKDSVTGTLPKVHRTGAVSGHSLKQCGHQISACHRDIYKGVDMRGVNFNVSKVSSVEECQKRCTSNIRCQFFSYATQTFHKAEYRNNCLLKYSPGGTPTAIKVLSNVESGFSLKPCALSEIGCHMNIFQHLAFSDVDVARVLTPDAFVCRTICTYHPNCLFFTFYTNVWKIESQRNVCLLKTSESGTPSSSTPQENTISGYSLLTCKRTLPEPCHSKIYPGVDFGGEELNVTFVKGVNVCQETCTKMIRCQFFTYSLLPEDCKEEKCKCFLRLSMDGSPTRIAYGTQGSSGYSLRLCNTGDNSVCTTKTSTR
T1 sequence (P03952 391-638 limits assumed): as the sequence (P03952 391-638 limits assumed) above
T1 sequence (P03952 20-390 partner limits assumed): as the sequence (P03952 20-390 partner limits assumed) above

In experiment [1], `Cc1ccnc(C2CC2c2cc(=O)c3ccc(NCc4cn5cc(C6CC6)cc(N6CC(=O)N(C)C6=O)c5n4)cc3[nH]2)n1` (single isomer, unassigned) [Example 12, 1-(6-cyclopropyl-2-(((2-(2-(4-methylpyrimidin-2-yl)cyclopropyl)-4-oxo-1,4-dihydroquinolin-7-yl)amino)methyl)imidazo[1,2-a]pyridin-8-yl)-3-methylimidazolidine-2,4-dione] had an IC90 of 0.4 to 1.5 µM. Also, the EC50 in experiment [2] was ≤ 0.001 µM.

In experiment [1], `Cc1ccnc([C@H]2C[C@@H]2c2ccc3ccc(NCc4cn5cc(C6CC6)cc(N6CC(=O)NC6=O)c5n4)cc3n2)n1` (racemic) [Example 81, rac-1-(6-cyclopropyl-2-(((2-((1S*,2S*)-2-(4-methylpyrimidin-2-yl)cyclopropyl)quinolin-7-yl)amino)methyl)imidazo[1,2-a]pyridin-8-yl)imidazolidine-2,4-dione] showed an IC90 of 1.5 to 10 µM. In experiment [2], the EC50 is ≤ 0.001 µM.

With `Cc1ccnc([C@H]2C[C@@H]2c2cc(N3CC4(COC4)C3)c3ccc(N(C)Cc4cn5cc(C6CC6)cc(N6CC(=O)N(C)C6=O)c5n4)cc3n2)n1` [Example 98, 1-(6-cyclopropyl-2-((methyl(2-((1S,2S)-2-(4-methylpyrimidin-2-yl)cyclopropyl)-4-(2-oxa-6-azaspiro[3.3]heptan-6-yl)quinolin-7-yl)amino)methyl)imidazo[1,2-a]pyridin-8-yl)-3-methylimidazolidine-2,4-dione], in experiment [1], the IC90 was ≤ 0.4 µM. In experiment [2], the EC50 was ≤ 0.001 µM.

For the compound `COc1cc2ccc([C@H]3C[C@@H]3c3nccc(C)n3)nc2cc1NCc1cn2cc(C3CC3)cc(N3CC(=O)N(C)C3=O)c2n1` (racemic) [Example 84, rac-1-(6-cyclopropyl-2-(((6-methoxy-2-((1S*,2S*)-2-(4-methylpyrimidin-2-yl)cyclopropyl)quinolin-7-yl)amino)methyl)imidazo[1,2-a]pyridin-8-yl)-3-methylimidazolidine-2,4-dione], the IC90 in experiment [1] lay in the range of 1.5 to 10 µM. Besides, the EC50 in experiment [2] was ≤ 0.001 µM.

In the case of `CN1C(=O)CN(c2cc(C3CC3)cn3cc(CNc4ccc5c(=O)[nH]c([C@H]6C[C@@H]6c6cccc(Cl)c6)nc5c4)nc23)C1=O` [Example 6, 1-(2-(((2-((1S,2S)-2-(3-chlorophenyl)cyclopropyl)-4-oxo-3,4-dihydroquinazolin-7-yl)amino)methyl)-6-cyclopropylimidazo[1,2-a]pyridin-8-yl)-3-methylimidazolidine-2,4-dione], the IC90 in experiment [1] was in the range of 1.5 to 10 µM. Moreover, the EC50 in experiment [2] fell in the range of 0.001 to 0.01 µM.

In experiment [1], `COCc1cc(NCc2cn3cc(C4CC4)cc(N4CC(=O)N(C)C4=O)c3n2)cc2nc([C@H]3C[C@@H]3c3nccc(C)n3)ccc12` (racemic) [Example 75, rac-1-(6-cyclopropyl-2-(((5-(methoxymethyl)-2-((1S*,2S*)-2-(4-methylpyrimidin-2-yl)cyclopropyl)quinolin-7-yl)amino)methyl)imidazo[1,2-a]pyridin-8-yl)-3-methylimidazolidine-2,4-dione] gave an IC90 of 0.4 to 1.5 µM. The EC50 in experiment [2] is ≤ 0.001 µM.

With `Cc1ccnc([C@H]2C[C@@H]2c2cc(N3CCC3)c3ccc(NCc4cn5cc(C6CC6)cc(N6CC(=O)N(C)C6=O)c5n4)cc3n2)n1` [Example 30, 1-(2-(((4-(azetidin-1-yl)-2-((1S,2S)-2-(4-methylpyrimidin-2-yl)cyclopropyl)quinolin-7-yl)amino)methyl)-6-cyclopropylimidazo[1,2-a]pyridin-8-yl)-3-methylimidazolidine-2,4-dione], the IC90 in experiment [1] was ≤ 0.4 µM. In experiment [2], the EC50 is ≤ 0.001 µM.

Turning to `Cc1ccnc([C@H]2C[C@@H]2c2cc(-c3cnn(C)c3)c3ccc(NCc4cn5cc(C6CC6)cc(N6CC(=O)N(C)C6=O)c5n4)cc3n2)n1` [Example 27, 1-(6-cyclopropyl-2-(((4-(1-methyl-1H-pyrazol-4-yl)-2-((1S,2S)-2-(4-methylpyrimidin-2-yl)cyclopropyl)quinolin-7-yl)amino)methyl)imidazo[1,2-a]pyridin-8-yl)-3-methylimidazolidine-2,4-dione], the IC90 in experiment [1] fell in the range of 0.4 to 1.5 µM. Moreover, the EC50 in experiment [2] is ≤ 0.001 µM.

Regarding `Cc1ccnc([C@H]2C[C@@H]2c2cc(C(C)(C)O)c3ccc(NCc4cn5cc(C6CC6)cc(N6CC(=O)N(C)C6=O)c5n4)cc3n2)n1` (racemic) [Example 95, rac-1-(6-cyclopropyl-2-(((4-(2-hydroxypropan-2-yl)-2-((1S*,2S*)-2-(4-methylpyrimidin-2-yl)cyclopropyl)quinolin-7-yl)amino)methyl)imidazo[1,2-a]pyridin-8-yl)-3-methylimidazolidine-2,4-dione], the IC90 in experiment [1] was in the range of 0.4 to 1.5 µM. Besides, the EC50 in experiment [2] is ≤ 0.001 µM.

With `Cc1ccnc([C@H]2C[C@@H]2c2ccc3ccc(NCc4cn5cc(C6CC6)cc(N6CC(=O)N(C)C6=O)c5n4)cc3n2)n1` (single isomer, unassigned) [Example 59], the IC90 in experiment [1] was 1.5 to 10 µM. The EC50 in experiment [2] was ≤ 0.001 µM.

Regarding `CN1C(=O)CN(c2cc(C3CC3)cn3cc(CNc4ccc5c(=O)cc([C@H]6C[C@@H]6c6cccc(Cl)c6)[nH]c5c4)nc23)C1=O` (racemic) [Example 5, rac-1-(2-(((2-((1S*,2S*)-2-(3-chlorophenyl)cyclopropyl)-4-oxo-1,4-dihydroquinolin-7-yl)amino)methyl)-6-cyclopropylimidazo[1,2-a]pyridin-8-yl)-3-methylimidazolidine-2,4-dione], the IC90 in experiment [1] is 1.5 to 10 µM. Besides, the EC50 in experiment [2] is 0.001 to 0.01 µM.

In the case of `Cc1ccnc([C@H]2C[C@@H]2c2cc(N3CC4(COC4)C3)c3ccc(NCc4cc5cc(C6CC6)cc(N6CC(=O)N(C)C6=O)n5n4)cc3n2)n1` [Example 107, 1-(5-cyclopropyl-2-(((2-((1S,2S)-2-(4-methylpyrimidin-2-yl)cyclopropyl)-4-(2-oxa-6-azaspiro[3.3]heptan-6-yl)quinolin-7-yl)amino)methyl)pyrazolo[1,5-a]pyridin-7-yl)-3-methylimidazolidine-2,4-dione], in experiment [1], the IC90 was ≤ 0.4 µM. Also, in experiment [2], the EC50 was ≤ 0.001 µM.

As to `Cc1ccnc([C@H]2C[C@@H]2c2cc(N(C)C)c3ccc(NCc4cn5cc(C6CC6)cc(N6CC(=O)N(C)C6=O)c5n4)cc3n2)n1` (racemic) [Example 29, rac-1-(6-cyclopropyl-2-(((4-(dimethylamino)-2-((1S*,2S*)-2-(4-methylpyrimidin-2-yl)cyclopropyl)quinolin-7-yl)amino)methyl)imidazo[1,2-a]pyridin-8-yl)-3-methylimidazolidine-2,4-dione], in experiment [1], the IC90 is ≤ 0.4 µM. The EC50 in experiment [2] is ≤ 0.001 µM.

On to `COc1cc([C@H]2C[C@@H]2c2nccc(C)n2)nc2cc(NCc3cn4cc(C5CC5)cc(N5CC(=O)N(C)C5=O)c4n3)ccc12` (racemic) [Example 21, rac-1-(6-cyclopropyl-2-(((4-methoxy-2-((1S*,2S*)-2-(4-methylpyrimidin-2-yl)cyclopropyl)quinolin-7-yl)amino)methyl)imidazo[1,2-a]pyridin-8-yl)-3-methylimidazolidine-2,4-dione], for which the IC90 in experiment [1] fell in the range of 1.5 to 10 µM. In experiment [2], the concentration for a half-maximal effect (EC50) was ≤ 0.001 µM.

As to `Oc1cc([C@H]2C[C@@H]2c2cccc(Cl)c2)nc2cc(NCc3cn4cc(C5CC5)ccc4n3)ccc12` [Example 51, 2-((1S,2S)-2-(3-chlorophenyl)cyclopropyl)-7-(((6-cyclopropylimidazo[1,2-a]pyridin-2-yl)methyl)amino)quinolin-4-ol], in experiment [1], the IC90 lay in the range of 1.5 to 10 µM. Further, the EC50 in experiment [2] was in the range of 0.001 to 0.01 µM.

Usually IC90 stands for the concentration needed for an effect of 90%. A high value points to a need for much substance. The EC50 is the concentration giving half of the maximal effect.
